Some test systems named below: A498 renal; NCI/ADR-RES ovarian; SF-539 CNS; SK-MEL-2 melanoma; SK-OV-3 ovarian; SW-620 colon; UO-31 renal; LOX IMVI melanoma; MOLT-4 leukemia; NCI-H23 lung.
What all share (test): DTP human tumour cell line panel, 48 h

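Dose response: 5 concentrations. Exposure: 48 h. Format: 96-well plates. Endpoint: linear interpolation; highest concentration if not reached. GI50 marks 50% less growth. TGI denotes the concentration required for complete inhibition of growth.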 Where only a bound is given, the exact number is not on record here.

A word on the TGI: it is the concentration giving total growth inhibition. The GI50 is the concentration at which growth is held to half of that of the control.

For `CC1(C=O)CCC23COC4(CCC5C6(C)CCC(OC7OCC(OC8OC(CO)C(O)C(OC9OC(CO)C(O)C(O)C9O)C8OC8OCC(O)C(O)C8O)C(O)C7OC7OC(CO)C(O)C(O)C7O)C(C)(C)C6CCC5(C)C4(C)CC2O)C3C1` (stereo not given), the TGI with A498 renal amounted to 1.94 µM; in the assay with NCI/ADR-RES ovarian, 1.05 µM; in the assay on SF-539 CNS it was 2.63 µM; in the assay on SK-MEL-2 melanoma it was 2.98 µM; in the assay with SK-OV-3 ovarian it was 2.57 µM; with SW-620 colon it was 3.14 µM. Moreover, the TGI with UO-31 renal came out at 2.8 µM.

On to `CCOC(=O)Nc1cc2c(c(N)n1)N=C(c1ccc3ccccc3c1)CN2`, for which the TGI turned out to be 35.2 µM in the assay on A498 renal; 8.1 µM with LOX IMVI melanoma; 0.16 µM in the assay with NCI/ADR-RES ovarian; 0.427 µM in the assay with SF-539 CNS; 5.15 µM with SK-MEL-2 melanoma; 18.9 µM in the assay with SK-OV-3 ovarian. Also, the TGI in the assay with SW-620 colon is 31.4 µM; in the assay on UO-31 renal, greater than 62.9 µM.

Consider `C[n+]1c2ccccc2c(CNC(CS)C(=O)O)c2ccccc21` (stereo not given), for which the concentration for total growth inhibition (TGI) with A498 renal is 53.8 µM; in the assay on MOLT-4 leukemia, 36.7 µM; in the assay with NCI-H23 lung, greater than 100 µM; in the assay on SF-539 CNS it was 35.8 µM; with SK-MEL-2 melanoma, 76.8 µM; in the assay on SK-OV-3 ovarian, 56.8 µM. Moreover, the results for the concentration for total growth inhibition (TGI) in the assay on SW-620 colon and in the assay with UO-31 renal were greater than 100 µM and 58 µM, respectively.

For the compound `CC1(O)COCCCCOc2c(CN)cccc2NC(=O)c2nc(cnc2N)-c2ccc(cc2)S(=O)(=O)C(C)(C)C1` (stereo not given), the concentration for 50% growth inhibition (GI50) in the assay on A498 renal is 0.0163 µM; in the assay with MOLT-4 leukemia, 0.019 µM; in the assay with NCI/ADR-RES ovarian it was 1.71 µM; in the assay on SF-539 CNS, 0.03 µM; with SK-MEL-2 melanoma it was 1.74 µM; in the assay with SK-OV-3 ovarian, 1.37 µM. Also, the GI50 was 0.42 µM in the assay on SW-620 colon and 1.06 µM with UO-31 renal. The TGI in the assay on A498 renal was found to be 1.43 µM; with MOLT-4 leukemia it was 2.4 µM; in the assay with NCI/ADR-RES ovarian, 4.02 µM; in the assay on SF-539 CNS it was 1.67 µM; in the assay with SK-MEL-2 melanoma it was 3.36 µM; with SK-OV-3 ovarian, 2.8 µM. Also, the concentration for total growth inhibition (TGI) with SW-620 colon was determined as 1.98 µM; in the assay on UO-31 renal, 2.31 µM.

With `Oc1ccc(-c2nc3cc(F)ccc3s2)cc1`, the TGI in the assay with LOX IMVI melanoma was 33.3 µM; in the assay with MOLT-4 leukemia, greater than 100 µM; in the assay with NCI-H23 lung, 83.8 µM; in the assay on NCI/ADR-RES ovarian, 42.4 µM; in the assay on SK-MEL-2 melanoma it was 36.9 µM; in the assay on SK-OV-3 ovarian, 50.7 µM. Moreover, the concentration for total growth inhibition (TGI) with SW-620 colon is greater than 100 µM; in the assay with UO-31 renal it was 49.9 µM.

In the case of `CS(=O)(=O)OCCN(CCOS(C)(=O)=O)c1ccc(/C=N/Nc2ncnc3nc[nH]c23)cc1`, the TGI with A498 renal turned out to be 60.6 µM; with LOX IMVI melanoma it was 37.7 µM; with MOLT-4 leukemia, 40 µM; in the assay on NCI-H23 lung, 39 µM; in the assay on SF-539 CNS, 49.4 µM; in the assay on SK-MEL-2 melanoma, 39.2 µM. Besides, the concentration for total growth inhibition (TGI) with SK-OV-3 ovarian is greater than 100 µM; in the assay with SW-620 colon, 66.8 µM; in the assay with UO-31 renal, 92 µM.

Consider `CCSc1nc(-c2cccs2)nc2ccc(I)cc12`, for which the TGI with LOX IMVI melanoma, in the assay with MOLT-4 leukemia, with NCI-H23 lung, with NCI/ADR-RES ovarian, with SF-539 CNS and in the assay on SK-MEL-2 melanoma was greater than 100 µM each time. For the same compound, the TGI in the assay with SW-620 colon and with UO-31 renal was greater than 100 µM each time.

Consider `CNC(C)Cc1ccccc1OC` (stereo not given), for which the TGI in the assay on A498 renal, with LOX IMVI melanoma, with MOLT-4 leukemia, in the assay on NCI-H23 lung, in the assay on SF-539 CNS and with SK-MEL-2 melanoma was greater than 100 µM throughout. In addition, the TGI in the assay on SK-OV-3 ovarian, in the assay on SW-620 colon and with UO-31 renal was greater than 100 µM in each case.

As for `NCCNCCNc1ccc(NCCNCCN)c2c1C(=O)c1c(O)ccc(O)c1C2=O`, the TGI in the assay with A498 renal, with LOX IMVI melanoma, in the assay with MOLT-4 leukemia, in the assay on NCI-H23 lung, with NCI/ADR-RES ovarian and with SF-539 CNS was greater than 100 µM each time. In addition, the total growth inhibition concentration (TGI) in the assay on SK-OV-3 ovarian, in the assay on SW-620 colon and in the assay with UO-31 renal was greater than 100 µM throughout.

For `O=C1OC2(OC2c2ccc(Cl)cc2)c2ccccc21` (stereo not given), the TGI with LOX IMVI melanoma was 34 µM; in the assay with MOLT-4 leukemia, greater than 100 µM; with SF-539 CNS it was greater than 100 µM; in the assay with SK-MEL-2 melanoma, greater than 100 µM; with SK-OV-3 ovarian it was greater than 100 µM; in the assay on SW-620 colon, greater than 100 µM. In the assay on UO-31 renal, this compound displayed a TGI greater than 100 µM.

Regarding `CO/N=C(\C)c1cccc(Nc2nc3ccccc3c3occc23)c1`, the TGI in the assay with A498 renal is 17.3 µM; in the assay with LOX IMVI melanoma it was 31.6 µM; in the assay with MOLT-4 leukemia, 37.3 µM; with NCI/ADR-RES ovarian it was 30.7 µM; with SF-539 CNS it was 26.9 µM; in the assay on SK-OV-3 ovarian it was 27.1 µM.

Consider `CCc1ccc2c(c1)C(=O)c1c-2n(CCCN)c(=O)c2cc([N+](=O)[O-])ccc12`, for which the GI50 in the assay with LOX IMVI melanoma was 1.19 µM; in the assay with NCI-H23 lung, 1.81 µM; in the assay on NCI/ADR-RES ovarian, 1.62 µM; with SF-539 CNS, 1.6 µM; with UO-31 renal it was 1.38 µM. For the same compound, the TGI came to 2.62 µM in the assay with LOX IMVI melanoma; 3.29 µM in the assay with NCI-H23 lung; 3.29 µM with NCI/ADR-RES ovarian; 3.01 µM in the assay with SF-539 CNS; 2.69 µM in the assay on UO-31 renal.

These data come from PubChem BioAssay (NCI).
